Measured values: BindingDB's records for doi:10.1021/cb100387r (Riken Advanced Science Institute, 2011)

Molecular target: Protein disulfide-isomerase (Homo sapiens, UniProt P07237)
Experiment: Reductase Activity Assay
Conditions: pH 7
Protocol: Reductase activity was assayed by measuring the PDI-catalyzed reduction of insulin in the presence of DTT, thus measuring the aggregation of reduced insulin chains at 650nm.

Chain of Protein disulfide-isomerase (P07237 whole entry): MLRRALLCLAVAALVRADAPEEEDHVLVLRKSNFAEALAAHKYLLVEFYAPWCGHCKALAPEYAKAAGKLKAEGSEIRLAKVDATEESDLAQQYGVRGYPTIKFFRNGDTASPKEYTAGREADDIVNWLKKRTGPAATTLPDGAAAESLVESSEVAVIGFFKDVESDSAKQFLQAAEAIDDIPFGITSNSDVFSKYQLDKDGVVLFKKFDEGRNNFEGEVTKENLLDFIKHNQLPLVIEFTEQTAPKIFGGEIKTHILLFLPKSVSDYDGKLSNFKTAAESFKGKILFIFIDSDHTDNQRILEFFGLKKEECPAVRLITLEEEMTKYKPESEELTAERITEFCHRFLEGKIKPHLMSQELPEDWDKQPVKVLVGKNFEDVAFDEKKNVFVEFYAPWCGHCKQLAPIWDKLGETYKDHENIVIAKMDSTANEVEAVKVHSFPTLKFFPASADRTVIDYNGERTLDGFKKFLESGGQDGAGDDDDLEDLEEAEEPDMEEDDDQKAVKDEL

| SMILES | IC50 [µM] |
| --- | --- |
| C/C1=C\CC(OC(=O)c2ccc(O)cc2)/C(C)=C/[C@@H](O)C(C)(C)CCC1 (stereo partly specified) [Juniferdin derivative, 1] | 0.156 |
| COc1ccc(C(=O)OC2C/C=C(\C)CCCC(C)(C)[C@H](O)/C=C/2C)cc1 (stereo partly specified) [Juniferdin derivative, 2] | > 10 |
| CC(=O)O[C@@H]1/C=C(\C)C(OC(=O)c2ccc(O)cc2)C/C=C(\C)CCCC1(C)C (stereo partly specified) [Juniferdin derivative, 3] | 0.453 |
| CC(=O)Oc1ccc(C(=O)OC2C/C=C(\C)CCCC(C)(C)[C@H](O)/C=C/2C)cc1 (stereo partly specified) [Juniferdin derivative, 4] | 0.627 |
| CC(=O)Oc1ccc(C(=O)OC2C/C=C(\C)CCCC(C)(C)[C@H](OC(C)=O)/C=C/2C)cc1 (stereo partly specified) [Juniferdin derivative, 5] | 0.693 |
| C/C1=C\CC(OC(=O)c2ccccc2)/C(C)=C/[C@@H](O)C(C)(C)CCC1 (stereo partly specified) [Juniferdin derivative, 6] | 4.96 |
| C/C1=C\CC(OC(=O)c2ccc(F)cc2)/C(C)=C/[C@@H](O)C(C)(C)CCC1 (stereo partly specified) [Juniferdin derivative, 7] | 0.958 |
| CCCCCCCCOC(=O)c1ccc(O)cc1 [Juniferdin derivative, 8] | > 10 |
| O=C(OC1CCCCCCC1)c1ccc(O)cc1 [Juniferdin derivative, 9] | 2.85 |
| O=C(OC1CCCCCCCCCCC1)c1ccc(O)cc1 [Juniferdin derivative, 10] | 0.565 |
| C/C1=C\[C@@H](O)C(C)(C)CCC[C@@]2(C)O[C@@H]2CC1OC(=O)c1ccc(O)cc1 (stereo partly specified) [Juniferdin derivative, 13] | 0.167 |
| C/C1=C\CC(OC(=O)c2ccc(O)cc2)[C@@]2(C)O[C@@H]2[C@@H](O)C(C)(C)CCC1 (stereo partly specified) [Juniferdin derivative, 14] | 2.53 |
| CC1(C)CCC[C@@]2(C)O[C@@H]2CC(OC(=O)c2ccc(O)cc2)[C@@]2(C)O[C@@H]2[C@H]1O (stereo partly specified) [Juniferdin derivative, 15] | > 10 |
| C/C1=C\[C@@H](O)C(C)(C)CCC[C@@](C)(O)[C@H](O)CC1OC(=O)c1ccc(O)cc1 (stereo partly specified) [Juniferdin derivative, 16] | > 10 |
| C/C1=C\[C@@H](O)C(C)(C)CCC[C@](C)(O)[C@@H](O)CC1OC(=O)c1ccc(O)cc1 (stereo partly specified) [Juniferdin derivative, 17] | 1.85 |
| C/C1=C\CC(O)/C(C)=C/[C@@H](O)C(C)(C)CCC1 (stereo partly specified) [Juniferol, 12] | > 10 |
